The record followed here is US10294229B2, “Heteroaryl substituted aminopyridine compounds” (BRISTOL-MYERS SQUIBB COMPANY, priority 2015, dated 2019).

Structures are written as SMILES.

Sequence of IRAK4 (Q9NWZ3 whole entry, species assumed): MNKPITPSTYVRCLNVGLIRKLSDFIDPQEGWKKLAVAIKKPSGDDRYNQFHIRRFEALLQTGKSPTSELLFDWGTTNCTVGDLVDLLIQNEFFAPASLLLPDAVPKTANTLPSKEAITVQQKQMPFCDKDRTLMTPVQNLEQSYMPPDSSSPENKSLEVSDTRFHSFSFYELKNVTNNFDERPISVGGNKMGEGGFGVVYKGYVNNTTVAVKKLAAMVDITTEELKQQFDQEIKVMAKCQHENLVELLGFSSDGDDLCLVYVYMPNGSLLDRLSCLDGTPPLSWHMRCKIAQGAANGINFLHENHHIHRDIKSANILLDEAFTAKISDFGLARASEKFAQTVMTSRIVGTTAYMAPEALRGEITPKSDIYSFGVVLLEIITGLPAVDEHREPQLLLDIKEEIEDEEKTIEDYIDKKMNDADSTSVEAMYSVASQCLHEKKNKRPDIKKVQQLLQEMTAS

The target in the experiment is IRAK4 (Homo sapiens (Human), UniProt Q9NWZ3). The experiment is described as follows: IRAK4 Inhibition Assay. Type of experiment: biochemical. Conditions: ATP 500 μM; IRAK4 0.6 nM. The method, then:
The assays were performed in U-bottom 384-well plates. The final assay volume was 30 μL prepared from 15 μL additions of enzyme and substrates (fluoresceinated peptide and ATP) and test compounds in assay buffer (20 mM HEPES pH 7.2, 10 mM MgCl2, 0.015% Brij 35 and 4 mM DTT). The reaction was initiated by the combination of IRAK4 with substrates and test compounds. The reaction mixture was incubated at room temperature for 60 min. and terminated by adding 45 μL of 35 mM EDTA to each sample. The reaction mixture was analyzed on the Caliper LABCHIP® 3000 (Caliper, Hopkinton, Mass.) by electrophoretic separation of the fluorescent substrate and phosphorylated product. Inhibition data were calculated by comparison to no enzyme control reactions for 100% inhibition and vehicle-only reactions for 0% inhibition. The final concentrations of reagents in the assays are ATP, 500 μM; FL-IPTSPITTTYFFFKKK peptide 1.5 μM; IRAK4, 0.6 nM; and DMSO, 1.6%.
One may read the IC50 as the concentration needed to halve the response being measured. On to `CC(C)Nc1cc(-n2ncc3cc(C#N)cnc32)ncc1-c1cn(C[C@@H](N)Cc2ccccc2)nn1` [Example 168, (S)-1-(5-(1-(2-amino-3-phenylpropyl)-1H-1,2,3-triazol-4-yl)-4-(isopropylamino)pyridin-2-yl)-1H-pyrazolo[3,4-b]pyridine-5-carbonitrile], for which the half-inhibitory concentration (IC50) came out at 24 nM. `CC(C)Nc1cc(-n2ncc3cc(C#N)cnc32)ncc1-c1cn(-c2ccccc2C#N)nn1` [Example 173, 1-(5-(1-(2-cyanophenyl)-1H-1,2,3-triazol-4-yl)-4-(isopropylamino)pyridin-2-yl)-1H-pyrazolo [3,4-b]pyridine-5-carbonitrile]: the IC50 turned out to be 26 nM.

Turning to `CC(C)Nc1cc(-n2ncc3cc(C#N)cnc32)ncc1-c1cn(-c2cccnc2)nn1` [Example 174, 1-(4-(isopropylamino)-5-(1-(pyridin-3-yl)-1H-1,2,3-triazol-4-yl)pyridin-2-yl)-1H-pyrazolo[3,4-b]pyridine-5-carbonitrile], the half-maximal inhibitory concentration (IC50) is 17 nM. Under `COC(=O)c1ccccc1-n1cc(-c2cnc(-n3ncc4cc(C#N)cnc43)cc2NC(C)C)nn1` [Example 175, methyl 2-(4-(6-(5-cyano-1H-pyrazolo[3,4-b]pyridin-1-yl)-4-(isopropylamino)pyridin-3-yl)-1H-1,2,3-triazol-1-yl)benzoate] stands 35 nM. Consider `CC(C)Nc1cc(-n2ncc3cc(C#N)cnc32)ncc1-c1cn([C@H]2CCN(C(=O)c3cccnc3)C[C@H]2O)nn1` [Example 184, 1-(5-(1-((3R,4S)-3-hydroxy-1-nicotinoylpiperidin-4-yl)-1H-1,2,3-triazol-4-yl)-4-(isopropylamino)pyridin-2-yl)-1H-pyrazolo[3,4-b]pyridine-5-carbonitrile], for which the IC50 was found to be 20 nM. Under `CC(C)Nc1cc(-n2ncc3cc(C(N)=O)cnc32)ncc1-c1cn([C@@H]2CCNC[C@@H]2O)nn1` [Example 187, 1-(5-(1-((3S,4R)-3-hydroxypiperidin-4-yl)-1H-1,2,3-triazol-4-yl)-4-(isopropylamino)pyridin-2-yl)-1H-pyrazolo[3,4-b]pyridine-5-carboxamide] stands 302 nM; under `CCOC(=O)N1CC[C@@H](n2cc(-c3cnc(-n4ncc5cc(C#N)cnc54)cc3NC(C)C)nn2)[C@@H](O)C1` [Example 189, (3S,4R)-ethyl 4-(4-(6-(5-cyano-1H-pyrazolo[3,4-b]pyridin-1-yl)-4-(isopropylamino)pyridin-3-yl)-1H-1,2,3-triazol-1-yl)-3-hydroxypiperidine-1-carboxylate], 27 nM; under `CC(C)Nc1cc(-n2ncc3cc(C#N)cnc32)ncc1-c1cn(CC(=O)N2CCN(S(C)(=O)=O)CC2)nn1` [Example 193, 1-(4-(isopropylamino)-5-(1-(2-(4-(methylsulfonyl)piperazin-1-yl)-2-oxoethyl)-1H-1,2,3-triazol-4-yl)pyridin-2-yl)-1H-pyrazolo[3,4-b]pyridine-5-carbonitrile], 4 nM. With `CC(C)CCn1cc(-c2cnc(-n3ncc4cc(Cl)cnc43)cc2NC(C)C)nn1` [Example 217, 2-(5-chloro-1H-pyrazolo [3,4-b]pyridin-1-yl)-5-(1-isopentyl-1H-1,2,3-triazol-4-yl)-N-isopropylpyridin-4-amine] the figure was 6 nM; with `CC(C)Nc1cc(-n2ncc3cc(C#N)cnc32)ncc1-c1cn(C[C@H](C)O)cn1` [Example 222, (S)-1-(5-(1-(2-hydroxypropyl)-1H-imidazol-4-yl)-4-(isopropylamino)pyridin-2-yl)-1H-pyrazolo[3,4-b]pyridine-5-carbonitrile], 63 nM; with `CC(=O)N1CC(n2cnc(-c3cnc(-n4ncc5cc(C#N)cnc54)cc3NC(C)C)c2)C1` [Example 223, 1-(5-(1-(1-acetylazetidin-3-yl)-1H-imidazol-4-yl)-4-(isopropylamino)pyridin-2-yl)-1H-pyrazolo[3,4-b]pyridine-5-carbonitrile], 22 nM.

For `CC(C)Nc1cc(-n2ncc3cc(C#N)cnc32)ncc1-c1cn(-c2cccnc2)cn1` [Example 224, 1-(4-(isopropylamino)-5-(1-(pyridin-3-yl)-1H-imidazol-4-yl)pyridin-2-yl)-1H-pyrazolo[3,4-b]pyridine-5-carbonitrile], the IC50 was 87 nM. With `CCn1cnc(-c2cnc(-n3ncc4cc(C#N)cnc43)cc2NC(C)C)c1` [Example 227, 1-(5-(1-ethyl-1H-imidazol-4-yl)-4-(isopropylamino)pyridin-2-yl)-1H-pyrazolo[3,4-b]pyridine-5-carbonitrile] the figure was 29 nM. Under `CC(C)Nc1cc(-n2ncc3cc(C#N)cnc32)ncc1-c1cn(C[C@H](C)CO)cn1` [Example 228, (S)-1-(5-(1-(3-hydroxy-2-methylpropyl)-1H-imidazol-4-yl)-4-(isopropylamino)pyridin-2-yl)-1H-pyrazolo[3,4-b]pyridine-5-carbonitrile] stands 19 nM; under `CC(C)Nc1cc(-n2ncc3cc(C#N)cnc32)ncc1-c1cn(Cc2ccccc2)cn1` [Example 230, 1-(5-(1-benzyl-1H-imidazol-4-yl)-4-(isopropylamino)pyridin-2-yl)-1H-pyrazolo[3,4-b]pyridine-5-carbonitrile], 27 nM; under `CC(C)Nc1cc(-n2ncc3cc(C#N)cnc32)ncc1-c1cn(CC(=O)N2CCOCC2)cn1` [Example 231, 1-(4-(isopropylamino)-5-(1-(2-morpholino-2-oxoethyl)-1H-imidazol-4-yl)pyridin-2-yl)-1H-pyrazolo[3,4-b]pyridine-5-carbonitrile], 21 nM. With `CC(C)Nc1cc(-n2ncc3cc(C#N)cnc32)ncc1-c1cn(Cc2cccnc2)cn1` [Example 235, 1-(4-(isopropylamino)-5-(1-(pyridin-3-ylmethyl)-1H-imidazol-4-yl)pyridin-2-yl)-1H-pyrazolo[3,4-b]pyridine-5-carbonitrile] the figure was 30 nM. On to `CC(C)Nc1cc(-n2ncc3cc(C#N)cnc32)ncc1-c1cn(CC(N)=O)cn1` [Example 237, 2-(4-(6-(5-cyano-1H-pyrazolo[3,4-b]pyridin-1-yl)-4-(isopropylamino)pyridin-3-yl)-1H-imidazol-1-yl) acetamide], for which the IC50 is 37 nM. With `CNC(=O)Cn1cnc(-c2cnc(-n3ncc4cc(C#N)cnc43)cc2NC(C)C)c1` [Example 238, 2-(4-(6-(5-cyano-1H-pyrazolo[3,4-b]pyridin-1-yl)-4-(isopropylamino)pyridin-3-yl)-1H-imidazol-1-yl)-N-methylacetamide] the figure was 36 nM; with `CC(C)Nc1cc(-n2ncc3cc(C#N)cnc32)ncc1-c1cn(Cc2ccccn2)cn1` [Example 239, 1-(4-(isopropylamino)-5-(1-(pyridin-2-ylmethyl)-1H-imidazol-4-yl)pyridin-2-yl)-1H-pyrazolo[3,4-b]pyridine-5-carbonitrile], 34 nM. With `CC(C)Nc1cc(-n2ncc3cc(C#N)cnc32)ncc1-c1cn(CCCc2ccccc2)cn1` [Example 241, 1-(4-(isopropylamino)-5-(1-(3-phenylpropyl)-1H-imidazol-4-yl)pyridin-2-yl)-1H-pyrazolo [3,4-b]pyridine-5-carbonitrile] the figure was 35 nM.

Consider `CC(C)Nc1cc(-n2ncc3cc(C#N)cnc32)ncc1-n1cc(CCO)cn1` [Example 242, 1-(5-(4-(2-hydroxyethyl)-1H-pyrazol-1-yl)-4-(isopropylamino)pyridin-2-yl)-1H-pyrazolo[3,4-b]pyridine-5-carbonitrile], for which the half-maximal inhibitory concentration (IC50) amounted to 47 nM.

For `CC(C)Nc1cc(-n2ncc3cc(C#N)cnc32)ncc1-n1cc(Cc2ccccc2)cn1` [Example 243, 1-(5-(4-benzyl-1H-pyrazol-1-yl)-4-(isopropylamino)pyridin-2-yl)-1H-pyrazolo[3,4-b]pyridine-5-carbonitrile], the half-inhibitory concentration (IC50) was found to be 62 nM. Under `CC(C)Nc1cc(-n2ncc3cc(C#N)cnc32)ncc1-n1cc(C(C)C)cn1` [Example 244, 1-(5-(4-isopropyl-1H-pyrazol-1-yl)-4-(isopropylamino)pyridin-2-yl)-1H-pyrazolo[3,4-b]pyridine-5-carbonitrile] stands 61 nM; under `CC(C)Nc1cc(-n2ncc3cc(C#N)cnc32)ncc1-n1cc(-c2ccccn2)cn1` [Example 245, 1-(4-(isopropylamino)-5-(4-(pyridin-2-yl)-1H-pyrazol-1-yl)pyridin-2-yl)-1H-pyrazolo[3,4-b]pyridine-5-carbonitrile], 334 nM. In the case of `Cc1ccn(-c2cnc(-n3ncc4cc(C#N)cnc43)cc2NC(C)C)n1` [Example 246, 1-(4-(isopropylamino)-5-(3-methyl-1H-pyrazol-1-yl)pyridin-2-yl)-1H-pyrazolo[3,4-b] pyridine-5-carbonitrile], the half-maximal inhibitory concentration (IC50) came to 336 nM. As to `CC(C)Nc1cc(-n2ncc3cc(C#N)cnc32)ncc1-n1ccc(C(F)(F)F)n1` [Example 247, 1-(4-(isopropylamino)-5-(3-(trifluoromethyl)-1H-pyrazol-1-yl)pyridin-2-yl)-1H-pyrazolo[3,4-b]pyridine-5-carbonitrile], the concentration for half-maximal inhibition (IC50) is 202 nM. Consider `CC(C)Nc1cc(-n2ncc3cc(C#N)cnc32)ncc1-n1ccc(C#N)n1` [Example 248, 1-(5-(3-cyano-1H-pyrazol-1-yl)-4-(isopropylamino)pyridin-2-yl)-1H-pyrazolo[3,4-b]pyridine-5-carbonitrile], for which the half-maximal inhibitory concentration (IC50) worked out at 66 nM. With `CC(C)Nc1cc(-n2ncc3cc(C#N)cnc32)ncc1-n1ccc(-c2cccnc2)n1` [Example 249, 1-(4-(isopropylamino)-5-(3-(pyridin-3-yl)-1H-pyrazol-1-yl)pyridin-2-yl)-1H-pyrazolo[3,4-b]pyridine-5-carbonitrile] the figure was 47 nM.
